Measured values taken from paper PMC5936891, “A focused library synthesis and cytotoxicity of quinones derived from the natural product bolinaquinone” (Royal Society Open Science, 2018).

Legend:
HT29 (colon carcinoma) = experiment: MTT in vitro growth inhibition assay, HT29; format: cell-based; conditions: Homo sapiens; for inhibition at 25 µM: HT-29, 25 µM of drug, 72 h, read-out: Percentage of Cell Growth Inhibition HT29; for GI50: HT-29, 72 h drug exposure
Text: (§1) With the desired bolinaquinone analogues 12–43 in hand, we examined their cytotoxicity against a panel of 11 tumour cell lines: HT29 (colon carcinoma), U87 and SJ-G2 (glioblastoma), MCF-7 (breast carcinoma), A2780 (ovarian carcinoma), H460 (lung carcinoma), A431 (skin carcinoma), Du145 (prostate carcinoma), BE2-C (neuroblastoma), MIA (pancreatic carcinoma), SMA (spontaneous murine astrocytoma) and a normal breast cell line (MCF10A). The inclusion of the MCF-10A cell line allowed a determination of a crude measure of relative toxicity while noting that the ultimate arbiter of toxicity requires in vivo evaluation. All analogues were initially screened at a 25 µM drug concentration.
(§2) Stock solutions were prepared as follows and stored at −20°C: drugs were stored as 40 mM solutions in DMSO. All cell lines were cultured in a humidified atmosphere 5% CO2 at 37°C. The cancer cell lines were maintained in Dulbecco's modified Eagle's medium (DMEM) (Trace Biosciences, Australia) supplemented with 10% fetal bovine serum, 10 mM sodium bicarbonate, penicillin (100 IU ml^−1), streptomycin (100 µg ml^−1) and glutamine (4 mM). The non-cancer MCF10A cell line was cultured in DMEM:F12 (1 : 1) cell culture media, 5% heat-inactivated horse serum, supplemented with penicillin (50 IU ml^−1), streptomycin (50 µg ml^−1), 20 mM Hepes, L-glutamine (2 mM), epidermal growth factor (20 ng ml^−1), hydrocortisone (500 ng ml^−1), cholera toxin (100 ng ml^−1) and insulin (10 ug ml^−1).
(§3) Cells in logarithmic growth were transferred to 96-well plates. Cytotoxicity was determined by plating cells in duplicate in 100 µl medium at a density of 2500–4000 cells per well. On day 0 (24 h after plating), when the cells were in logarithmic growth, 100 μl of medium with or without the test agent was added to each well. After 72 h, drug exposure growth inhibitory effects were evaluated using the MTT (3-[4,5-dimethylthiazol-2-yl]-2,5-diphenyl-tetrazolium bromide) assay and the absorbance read at 540 nm. Percentage growth inhibition was determined at a fixed drug concentration of 25 µM. A value of 100% is indicative of complete cell growth inhibition. Those analogues showing appreciable percentage growth inhibition underwent further dose–response analysis allowing for the calculation of a GI50 value. This value is the drug concentration at which cell growth is 50% inhibited based on the difference between the optical density values on day 0 and those at the end of drug exposure.

U87 (glioblastoma) = experiment: MTT in vitro growth inhibition assay, U87; format: cell-based; conditions: for inhibition at 25 µM: 25 µM of drug, 72 h, read-out: Percentage of Cell Growth Inhibition U87; for GI50: 72 h drug exposure
Text: as §1, §2, §3

MCF-7 (breast carcinoma) = experiment: MTT in vitro growth inhibition assay, MCF-7; format: cell-based; conditions: Homo sapiens; for inhibition at 25 µM: MCF7, 25 µM of drug, 72 h, read-out: Percentage of Cell Growth Inhibition MCF-7; for GI50: MCF7, 72 h drug exposure
Text: as §1, §2, §3

[1] = tested on: A2780 (ovarian carcinoma); experiment: MTT in vitro growth inhibition assay, A2780; format: cell-based; conditions: Homo sapiens; for inhibition at 25 µM: 25 µM of drug, 72 h, read-out: Percentage of Cell Growth Inhibition A2780; for GI50: 72 h drug exposure
Text: as §1, §2, §3

H460 (lung carcinoma) = experiment: MTT in vitro growth inhibition assay, H460; format: cell-based; conditions: Homo sapiens; for inhibition at 25 µM: NCI-H460, 25 µM of drug, 72 h, read-out: Percentage of Cell Growth Inhibition H460; for GI50: NCI-H460, 72 h drug exposure
Text: as §1, §2, §3

A431 (skin carcinoma) = experiment: MTT in vitro growth inhibition assay, A431; format: cell-based; conditions: Homo sapiens; for inhibition at 25 µM: A-431, 25 µM of drug, 72 h, read-out: Percentage of Cell Growth Inhibition A431; for GI50: A-431, 72 h, 72 h drug exposure
Text: as §1, §2, §3

[2] = tested on: Du145 (prostate carcinoma); experiment: MTT in vitro growth inhibition assay, Du145; format: cell-based; conditions: Homo sapiens; for inhibition at 25 µM: DU-145, 25 µM of drug, 72 h, read-out: Percentage of Cell Growth Inhibition Du145; for GI50: DU-145, 72 h, 72 h drug exposure
Text: as §1, §2, §3

BE2-C (neuroblastoma) = experiment: MTT in vitro growth inhibition assay, BE2-C; format: cell-based; conditions: Homo sapiens, BE(2)-C, 72 h; for inhibition at 25 µM: 25 µM of drug, read-out: Percentage of Cell Growth Inhibition BE2-C; for GI50: 72 h drug exposure
Text: as §1, §2, §3

SJ-G2 (glioblastoma) = experiment: MTT in vitro growth inhibition assay, SJ-G2; format: cell-based; conditions: for inhibition at 25 µM: 25 µM of drug, 72 h, read-out: Percentage of Cell Growth Inhibition SJ-G2; for GI50: 72 h drug exposure
Text: as §1, §2, §3

[3] = tested on: MIA (pancreatic carcinoma); experiment: MTT in vitro growth inhibition assay, MIA; format: cell-based; conditions: for inhibition at 25 µM: 25 µM of drug, 72 h, read-out: Percentage of Cell Growth Inhibition MIA; for GI50: 72 h drug exposure
Text: as §1, §2, §3

[4] = tested on: SMA (spontaneous murine astrocytoma); experiment: MTT in vitro growth inhibition assay, SMA; format: cell-based; conditions: Mus musculus; for inhibition at 25 µM: 25 µM of drug, 72 h, read-out: Percentage of Cell Growth Inhibition SMA; for GI50: 72 h drug exposure
Text: as §1, §2, §3

[5] = tested on: MCF10A (normal breast cell line); experiment: MTT in vitro growth inhibition assay, MCF10A; format: cell-based; conditions: Homo sapiens, MCF-10A; for inhibition at 25 µM: 25 µM of drug, 72 h, read-out: Percentage of Cell Growth Inhibition MCF10A; for GI50: normal breast cell line, 72 h drug exposure
Text: as §1, §2, §3

COC1=C(c2ccc3ccccc3c2)C(=O)C(OC)=C(c2cccc3ccccc23)C1=O [compound 33, 2,5-Dimethoxy-3-(naphthalene-1-yl)-6-(naphthalene-3-yl)cyclohexa-2,5-diene-2,5-diene-1,4-dione]
inhibition at 25 µM (HT29 (colon carcinoma)): 53 ± 2%
GI50 (HT29 (colon carcinoma)): 23 ± 1.2 µM
inhibition at 25 µM (U87 (glioblastoma)): 43 ± 11%
GI50 (U87 (glioblastoma)): 26 ± 2.1 µM
inhibition at 25 µM (MCF-7 (breast carcinoma)): > 100%
GI50 (MCF-7 (breast carcinoma)): 5.6 ± 0.7 µM
inhibition at 25 µM [1]: 98 ± 0.5%
GI50 [1]: 6.9 ± 1.2 µM
inhibition at 25 µM (H460 (lung carcinoma)): 45 ± 2%
GI50 (H460 (lung carcinoma)): 28 ± 2.7 µM
inhibition at 25 µM (A431 (skin carcinoma)): 57 ± 3%
GI50 (A431 (skin carcinoma)): 23 ± 3.4 µM
inhibition at 25 µM [2]: 40 ± 1%
GI50 [2]: 31 µM
inhibition at 25 µM (BE2-C (neuroblastoma)): 81 ± 1%
GI50 (BE2-C (neuroblastoma)): 12 ± 0.9 µM
inhibition at 25 µM (SJ-G2 (glioblastoma)): 92 ± 5%
GI50 (SJ-G2 (glioblastoma)): 14 ± 1.9 µM
inhibition at 25 µM [3]: 72 ± 2%
GI50 [3]: 15 ± 0.9 µM
inhibition at 25 µM [4]: 81 ± 10%
GI50 [4]: 11 ± 0.33 µM
inhibition at 25 µM [5]: 86 ± 3%
GI50 [5]: 13 ± 2.2 µM
melting point: 163 to 165 °C

CCCCc1ccc(C2=C(OC)C(=O)C(c3ccc4ccccc4c3)=C(OC)C2=O)cc1 [compound 35, 2-(4-Butylphenyl)-3,6-dimethoxy-5-(naphthalene-3-yl)cyclohexa-2,5-diene-1,4-dione]
inhibition at 25 µM (HT29 (colon carcinoma)): 59 ± 3%
GI50 (HT29 (colon carcinoma)): 21 ± 2.6 µM
inhibition at 25 µM (U87 (glioblastoma)): 38 ± 2%
GI50 (U87 (glioblastoma)): 42 ± 2.8 µM
inhibition at 25 µM (MCF-7 (breast carcinoma)): 87 ± 1%
GI50 (MCF-7 (breast carcinoma)): 10 ± 0.6 µM
inhibition at 25 µM [1]: 66 ± 1%
GI50 [1]: 14 ± 2 µM
inhibition at 25 µM (H460 (lung carcinoma)): 61 ± 3%
GI50 (H460 (lung carcinoma)): 19 ± 0.6 µM
inhibition at 25 µM (A431 (skin carcinoma)): 49 ± 3%
GI50 (A431 (skin carcinoma)): 26 ± 4.8 µM
inhibition at 25 µM [2]: 56 ± 2%
GI50 [2]: 19 ± 1 µM
inhibition at 25 µM (BE2-C (neuroblastoma)): 61 ± 2%
GI50 (BE2-C (neuroblastoma)): 23 ± 3.2 µM
inhibition at 25 µM (SJ-G2 (glioblastoma)): 67 ± 4%
GI50 (SJ-G2 (glioblastoma)): 16 ± 2.2 µM
inhibition at 25 µM [3]: 61 ± 2%
GI50 [3]: 18 ± 1.2 µM
inhibition at 25 µM [4]: 79 ± 5%
GI50 [4]: 8.2 ± 0.8 µM
inhibition at 25 µM [5]: 47 ± 5%
GI50 [5]: 26 ± 4.8 µM
melting point: 134 to 136 °C

COC1=CC(=O)C(OC)=C(c2ccc(C)cc2)C1=O [compound 13, 2,5-Dimethoxy-3-p-tolylcyclohexa-2,5-diene-1,4-dione]
inhibition at 25 µM (HT29 (colon carcinoma)): 10 ± 4%
GI50 (HT29 (colon carcinoma)): > 50 µM
inhibition at 25 µM (U87 (glioblastoma)): 13 ± 4%
GI50 (U87 (glioblastoma)): > 50 µM
inhibition at 25 µM (MCF-7 (breast carcinoma)): 23 ± 3%
GI50 (MCF-7 (breast carcinoma)): 37 ± 1 µM
inhibition at 25 µM [1]: 72 ± 10%
GI50 [1]: 20 ± 1.2 µM
inhibition at 25 µM (H460 (lung carcinoma)): 13 ± 3%
GI50 (H460 (lung carcinoma)): > 50 µM
inhibition at 25 µM (A431 (skin carcinoma)): < 10%
GI50 (A431 (skin carcinoma)): > 50 µM
inhibition at 25 µM [2]: 13 ± 2%
inhibition at 25 µM (BE2-C (neuroblastoma)): > 100%
GI50 (BE2-C (neuroblastoma)): 12 ± 1.2 µM
inhibition at 25 µM (SJ-G2 (glioblastoma)): 41 ± 18%
GI50 (SJ-G2 (glioblastoma)): 33 ± 1.9 µM
inhibition at 25 µM [3]: < 10%
GI50 [3]: > 50 µM
inhibition at 25 µM [4]: 45 ± 9%
GI50 [4]: 33 ± 2.3 µM
inhibition at 25 µM [5]: 10 ± 5%
GI50 [5]: 50 ± 9.2 µM

CCCNC1=CC(=O)C(NCCC)=C(c2cccc3ccccc23)C1=O [compound 39, 3-(Naphthalene-1-yl)-2,5-bis-(propylamino)cyclohexa-2,5-diene-1,4-dione]
inhibition at 25 µM (HT29 (colon carcinoma)): 76 ± 2%
inhibition at 25 µM (U87 (glioblastoma)): 75 ± 1%
inhibition at 25 µM (MCF-7 (breast carcinoma)): 69 ± 1%
inhibition at 25 µM [1]: 78 ± 2%
inhibition at 25 µM (H460 (lung carcinoma)): 59 ± 3%
inhibition at 25 µM (A431 (skin carcinoma)): 76 ± 3%
inhibition at 25 µM [2]: 75 ± 1%
inhibition at 25 µM (BE2-C (neuroblastoma)): 73 ± 3%
inhibition at 25 µM (SJ-G2 (glioblastoma)): 59 ± 1%
inhibition at 25 µM [3]: 69 ± 2%
inhibition at 25 µM [4]: 54 ± 11%
inhibition at 25 µM [5]: 78 ± 1%
melting point: 134 to 137 °C

COC1=CC(=O)C(OC)=C(c2ccc(OC)cc2OC)C1=O [compound 20, 2,5-Dimethoxy-3-(2,4-dimethoxyphenyl)cyclohexa-2,5-diene-1,4-dione]
inhibition at 25 µM (HT29 (colon carcinoma)): 15 ± 2%
inhibition at 25 µM (U87 (glioblastoma)): 17 ± 3%
inhibition at 25 µM (MCF-7 (breast carcinoma)): 20 ± 3%
GI50 (MCF-7 (breast carcinoma)): 34 ± 3 µM
inhibition at 25 µM [1]: 48 ± 9%
GI50 [1]: 25 ± 3 µM
inhibition at 25 µM (H460 (lung carcinoma)): 10 ± 5%
inhibition at 25 µM (A431 (skin carcinoma)): 11 ± 4%
inhibition at 25 µM [2]: < 10%
inhibition at 25 µM (BE2-C (neuroblastoma)): > 100%
GI50 (BE2-C (neuroblastoma)): ~11 µM
inhibition at 25 µM (SJ-G2 (glioblastoma)): 32 ± 6%
GI50 (SJ-G2 (glioblastoma)): 31 ± 1.5 µM
inhibition at 25 µM [3]: < 10%
inhibition at 25 µM [4]: 35 ± 8%
GI50 [4]: 33 ± 3.5 µM
inhibition at 25 µM [5]: 14 ± 6%
GI50 [5]: 38 ± 5 µM

COC1=CC(=O)C(OC)=C(c2ccc(O)cc2)C1=O [compound 16, 3-(4-Hydroxyphenyl)-2,5-dimethoxycyclohexa-2,5-diene-1,4-dione]
inhibition at 25 µM (HT29 (colon carcinoma)): 11 ± 3%
inhibition at 25 µM (U87 (glioblastoma)): < 10%
inhibition at 25 µM (MCF-7 (breast carcinoma)): 15%
inhibition at 25 µM [1]: < 10%
GI50 [1]: 35 ± 1.9 µM
inhibition at 25 µM (H460 (lung carcinoma)): < 10%
inhibition at 25 µM (A431 (skin carcinoma)): > 100%
inhibition at 25 µM [2]: 21 ± 6%
inhibition at 25 µM (BE2-C (neuroblastoma)): < 10%
GI50 (BE2-C (neuroblastoma)): ~11 µM
inhibition at 25 µM (SJ-G2 (glioblastoma)): 21 ± 9%
GI50 (SJ-G2 (glioblastoma)): 43 ± 1.5 µM
inhibition at 25 µM [3]: < 10%
GI50 [4]: 50 ± 3.2 µM
